# From US20070275936A1, “Formulations and Treatment Methods” (priority 1998, published 2007)
# What was measured:
# Plasmodium falciparum = assay: Inhibition of parasite growth in culture; format: cell-based
# Description: The effect of Epi (16α-bromo-epiandrosterone) on parasite (Plasmodium falciparum) growth was shown. EPI was active at a concentration of 1 μM.
# Parasitemias were determined by standard methods (microscopic inspection of at least 500 cells, stained with Diff-Quick™ (Baxter). Parasites were cultured under standard conditions in RPMI-1640 supplemented with Hepes/Glucose (10 mM), glutamine (0.3 g/liter) and 10% human plasma. The hematocrit was 1%.
# [1] = tested on: Circulating Hematologic Elements; assay: Human HIV clinical protocol: hematology; format: in vivo
# Description: Otherwise untreated patients with CD4 counts of ≧200/μL and HIV-1 viral RNA between 5,000 and 1,000,000 copies/mL (branched-DNA, version 3.0, Bayer, Tarrytown, N.Y.) provided informed consent and were enrolled into a Phase I/II dose-escalation study of the safety and efficacy of intramuscular injections of BrEA. The protocol was conducted in South Africa. In the first cohort, four patients received an initial injection of 1 mL (50 mg), followed by a safety and pharmocokinetic study for seven days, and then received five daily injections of 1 mL (50 mg). The second cohort of 8 patients was randomized in a 1:2 ratio to receive either 50 mg (1 mL) or 100 mg (2 mL) on the same schedule. Patients were allowed at the discretion of the investigators to receive up to three additional courses each, repeated after 28 days of observation. The protocol was amended to introduce an improved formulation, and to extend the initial pharmacokinetic and safety period to 14 days, the observation period following the five daily doses to 35 days, and to allow up to 7 treatment courses. A third cohort of 24 patients was randomized in a 1:2:4 ratio to receive either 50 mg (0.5 mL), 100 mg (1 mL), or 200 mg (2 mL) of BrEA. The patients were all male, since initial safety studies are not permitted in females in South Africa. Within the group of 39 patients randomized, the ethnic demographic included was 18 Caucasian, 17 African, and 4 other. The average age was 34 (range 20-63), the average initial CD4/μL was 434 (range 176-1210), and the average viral load was 13,772 copies/mL (range 3,020-158,489). Patients underwent physical examinations and provided samples for chemistry, hematology, virology and immunology testing approximately every two weeks.
# The CD4^+ cell frequency was determined using the FACSCount test. The absolute frequency of a CD8^+ cell subset was calculated in a similar fashion. The absolute white blood cell (WBC) count was determined using an automated cell counter (Advia 120, Bayer, Tarrytown, N.Y.). The nucleated cell region was defined using a forward versus orthogonal scatter plot. The absolute frequency per μL of CD3^− Natural Killer or Dendritic Cell subsets (F) was estimated by the equation: F=(proportion of nucleated cells)×(absolute WBC count per μL).
# Statistical analysis of changes in surface phenotypes, hematological, and viral parameters were performed by calculating the area under the curve (AUC) of the percentage difference from baselines (phenotype), percentage difference from the mean of screen and baseline values (hematology), or log10 change from the mean of screen and baseline values (plasma viral RNA) for individual patients. AUC were calculated using the actual number of days between analysis visits for each patient. Because patients were on study for varying periods of time, this value was normalized to the time-averaged AUC by dividing by the number of days of observation. The Student's t-test was then used to analyze the difference from zero for the AUCs from all patients with data available for each parameter. A significant increase in the AUC for the entire 5-month period was interpreted as a nonrandom change in the given parameter.
# For these reasons, the time-averaged AUC values for the 5-month period underestimate the magnitude of the individual responses. Maximal individual patient responses were calculated as the mean of the maximal percentage changes from baselines for individual patients at any analysis visit after dosing.
# To investigate the kinetics of the responses for the entire population related to the time after dosing, the maximum analysis visit responses were calculated as the average of the maxima of the mean percentage changes from baselines for each analysis visit. Due to the altered BrEA administration interval for cohort 3, the analysis visits were aligned relative to the last dosing visit.
# blood cell counts = assay: Enhancement of hemopoiesis in a human HIV patient; format: in vivo
# Description: A human patient infected with the HIV virus was treated with 16α-bromoepiandrosterone (“BrEA”), using a physiological saline formulation containing 10 mg/mL of BrEA in solution, 36% w/v hydroxypropyl-β-cyclodextrin and 20 mg/mL of micronized BrEA in suspension. The patient received two courses of treatment. The first course consisted of subcutaneous injection once per day of 80 mg of BrEA for 10 days. The second course of treatment commenced 74 days later and used the same formulation, except that deuterium oxide replaced water in the formulation. The second treatment course consisted of subcutaneous injection once per day of 80 mg of BrEA for 15 days. The patient's blood parameters were obtained at the start and at the end of each course of treatment.
compound,measurement,setting,value
"C[C@]12CC[C@H](O)C[C@@H]1CC[C@@H]1[C@@H]2CC[C@]2(C)C(=O)[C@H](Br)C[C@@H]12 [BrEA, 16α-bromo-3β-hydroxy-5α-androstane-17-one]",Parasitemia after treatment,"Plasmodium falciparum; 50 nM, 24 hrs, Time 0 2%, control + DMSO 8.80%",9.90%
same,Parasitemia after treatment,"Plasmodium falciparum; 50 nM, 48 hrs, Time 0 2%, control + DMSO 11%",9.20%
same,Parasitemia after treatment,"Plasmodium falciparum; 50 nM, 72 hrs, Time 0 2%, control + DMSO 8%",8.30%
same,Parasitemia after treatment,"Plasmodium falciparum; 1 μM, 24 hrs, Time 0 2%, control + DMSO 8.80%",5.80%
same,Parasitemia after treatment,"Plasmodium falciparum; 1 μM, 24 hrs, Time 0 5%, control + DMSO 5.40%",5.70%
same,Parasitemia after treatment,"Plasmodium falciparum; 1 μM, 48 hrs, Time 0 2%, control + DMSO 11%",6.10%
same,Parasitemia after treatment,"Plasmodium falciparum; 1 μM, 48 hrs, Time 0 5%, control + DMSO 3.10%",5.50%
same,Parasitemia after treatment,"Plasmodium falciparum; 1 μM, 72 hrs, Time 0 2%, control + DMSO 8%",2.10%
same,Parasitemia after treatment,"Plasmodium falciparum; 1 μM, 72 hrs, Time 0 5%, control + DMSO 5.20%",1.60%
same,Parasitemia after treatment,"Plasmodium falciparum; 2.5 μM, 24 hrs, Time 0 2%, control + DMSO 8.80%",7.30%
same,Parasitemia after treatment,"Plasmodium falciparum; 2.5 μM, 48 hrs, Time 0 2%, control + DMSO 11%",5.80%
same,Parasitemia after treatment,"Plasmodium falciparum; 2.5 μM, 72 hrs, Time 0 2%, control + DMSO 8%",3.20%
same,Parasitemia after treatment,"Plasmodium falciparum; 5 μM, 24 hrs, Time 0 2%, control + DMSO 8.80%",5.40%
same,Parasitemia after treatment,"Plasmodium falciparum; 5 μM, 48 hrs, Time 0 2%, control + DMSO 11%",6%
same,Parasitemia after treatment,"Plasmodium falciparum; 5 μM, 72 hrs, Time 0 2%, control + DMSO 8%",1.80%
same,Parasitemia after treatment,"Plasmodium falciparum; 10 μM, 24 hrs, Time 0 2%, control + DMSO 8.80%",4.20%
same,Parasitemia after treatment,"Plasmodium falciparum; 10 μM, 24 hrs, Time 0 5%, control + DMSO 5.40%",5.60%
same,Parasitemia after treatment,"Plasmodium falciparum; 10 μM, 48 hrs, Time 0 2%, control + DMSO 11%",3%
same,Parasitemia after treatment,"Plasmodium falciparum; 10 μM, 48 hrs, Time 0 5%, control + DMSO 3.10%",0.90%
same,Parasitemia after treatment,"Plasmodium falciparum; 10 μM, 72 hrs, Time 0 2%, control + DMSO 8%",0%
same,Parasitemia after treatment,"Plasmodium falciparum; 10 μM, 72 hrs, Time 0 5%, control + DMSO 5.20%",0%
same,Parasitemia after treatment,"Plasmodium falciparum; 50 μM, 24 hrs, Time 0 2%, control + DMSO 8.80%",0%
same,Parasitemia after treatment,"Plasmodium falciparum; 50 μM, 48 hrs, Time 0 2%, control + DMSO 11%",0%
same,Parasitemia after treatment,"Plasmodium falciparum; 50 μM, 72 hrs, Time 0 2%, control + DMSO 8%",0%
same,Parasitemia after treatment,"Plasmodium falciparum; 100 μM, 24 hrs, Time 0 5%, control + DMSO 5.40%",0%
same,Parasitemia after treatment,"Plasmodium falciparum; 100 μM, 48 hrs, Time 0 5%, control + DMSO 3.10%",0%
same,Parasitemia after treatment,"Plasmodium falciparum; 100 μM, 72 hrs, Time 0 5%, control + DMSO 5.20%",0%
same,Parasitemia after treatment,"Plasmodium falciparum; 500 μM, 24 hrs, Time 0 5%, control + DMSO 5.40%",0%
same,Parasitemia after treatment,"Plasmodium falciparum; 500 μM, 48 hrs, Time 0 5%, control + DMSO 3.10%",0%
same,Parasitemia after treatment,"Plasmodium falciparum; 500 μM, 72 hrs, Time 0 5%, control + DMSO 5.20%",0%
same,concentration at which active on parasite growth,Plasmodium falciparum; P. falciparum culture,1 µM
same,Eosinophils: Maximum Analysis Visit Responses Mean,[1]; analysis visit day 22,129% (22)
same,WBC: Maximum Analysis Visit Responses Mean,[1]; analysis visit day 81,23% (81)
same,Basophils: Maximum Analysis Visit Responses Mean,[1]; analysis visit day 126,113% (126)
same,Eosinophils: Maximum Individual Patient Responses Mean (range),"[1]; change from baseline, n=33",110% (−37 to 656%)
same,Basophils: Maximum Individual Patient Responses Mean (range),"[1]; change from baseline, n=37","182% (−20 to 1,100%)"
same,Monocytes: Maximum Individual Patient Responses Mean (range),"[1]; change from baseline, n=37",60% (−14 to 189%)
same,Neutrophils: Maximum Individual Patient Responses Mean (range),"[1]; change from baseline, n=37",67% (−25 to 297%)
same,Platelets: Maximum Individual Patient Responses Mean (range),"[1]; change from baseline, n=37",31% (0 to 122%)
same,WBC: Maximum Individual Patient Responses Mean (range),"[1]; change from baseline, n=37",36% (−1 to 159%)
same,WBC: Time-averaged AUC Increase Mean ± SEM,"[1]; i.m. BrEA, HIV patients, n=37, p=0.132",4.4 ± 3%
same,Eosinophils: Time-averaged AUC Increase Mean ± SEM,"[1]; n=33, p=0.086",20 ± 11%
same,Platelets: Time-averaged AUC Increase Mean ± SEM,"[1]; n=37, p<0.001",7 ± 2%
same,Basophils: Time-averaged AUC Increase Mean ± SEM,"[1]; n=37, p=0.001",42 ± 12%
same,Neutrophils: Time-averaged AUC Increase Mean ± SEM,"[1]; n=37, p=0.009",11 ± 4%
same,Monocytes: Time-averaged AUC Increase Mean ± SEM,"[1]; n=37, p=0.029",10 ± 5%
same,WBC,"blood cell counts; 1st Course end (80 mg s.c. daily 10 days), start 2.38",2.47e+09 L⁻¹
same,basophils,"blood cell counts; 1st Course end, start 0.02",1e+07 L⁻¹
same,monocytes,"blood cell counts; 1st Course end, start 0.35",3e+08 L⁻¹
same,neutrophils,"blood cell counts; 1st Course end, start 0.92",8e+08 L⁻¹
same,CD4+ T cells,"blood cell counts; 1st Course end, start 93",116 mm^−3
same,CD16+/56+ NK cells,"blood cell counts; 1st Course end, start 186",348 mm^−3
same,T suppressor cells,"blood cell counts; 1st Course end, start 344",452 mm^−3
same,WBC,"blood cell counts; 2nd Course end (80 mg s.c. daily 15 days), start 3.57",5.66e+09 L⁻¹
same,basophils,"blood cell counts; 2nd Course end, start 0.01",6e+07 L⁻¹
same,monocytes,"blood cell counts; 2nd Course end, start 0.34",5.4e+08 L⁻¹
same,neutrophils,"blood cell counts; 2nd Course end, start 2.02",3.6e+09 L⁻¹
same,CD4+ T cells,"blood cell counts; 2nd Course end, start 113",125 mm^−3
same,CD16+/56+ NK cells,"blood cell counts; 2nd Course end, start 144",425 mm^−3
same,T suppressor cells,"blood cell counts; 2nd Course end, start 351",513 mm^−3
